For 1 compound, Activity and IC50 results are on record in ChEMBL document CHEMBL1629466, “Synthesis and biological activity of some antitumor active derivatives from glycyrrhetinic acid” (Eur J Med Chem, 2010).

Common to all, as to assay type: functional, cell-based
Assay [1] has as its system A-431. The assay can be described thus: Induction of apoptosis in human A431 cells assessed as DNA fragmentation at IC90 concentration after 24 hrs by gel electrophoresis analysis.
The subject of assay [2] is A2780. The assay can be described thus: Induction of apoptosis in human A2780 cells assessed as DNA fragmentation at IC90 concentration after 24 hrs by gel electrophoresis analysis.
Assay [3] can be described thus: Cytotoxicity against human 518A2 cells after 96 hrs by sulforhodamine B assay. (The SRB assay estimates cell density from bound dye.)
A further assay has as its system 8505C. The assay can be described thus: Cytotoxicity against human 8505C cells after 96 hrs by sulforhodamine B assay.
A short description of assay [4]: Cytotoxicity against human A253 cells after 96 hrs by sulforhodamine B assay.
The subject of assay [5] is A2780. Put plainly: Cytotoxicity against human A2780 cells after 96 hrs by sulforhodamine B assay.
The test system of a further assay is A549. Put plainly: Cytotoxicity against human A549 cells after 96 hrs by sulforhodamine B assay.
A further assay has as its system DLD-1. The assay can be described thus: Cytotoxicity against human DLD1 cells after 96 hrs by sulforhodamine B assay.
A further assay deals with FaDu. The assay can be described thus: Cytotoxicity against human FADU cells after 96 hrs by sulforhodamine B assay.
The next assay relates to HCT-116. Put plainly: Cytotoxicity against human HCT116 cells after 96 hrs by sulforhodamine B assay.
A further assay deals with HCT-8. Put plainly: Cytotoxicity against human HCT8 cells after 96 hrs by sulforhodamine B assay.
The test system of another assay is HT-29. The assay can be described thus: Cytotoxicity against human HT-29 cells after 96 hrs by sulforhodamine B assay.
Assay [6] can be described thus: Cytotoxicity against human Lipo cells after 96 hrs by sulforhodamine B assay.
The subject of a further assay is MCF7. Put plainly: Cytotoxicity against human MCF7 cells after 96 hrs by sulforhodamine B assay.
The test system of the next assay is SW-1736. The assay can be described thus: Cytotoxicity against human SW1736 cells after 96 hrs by sulforhodamine B assay.
In the next assay the test system is SW480. Put plainly: Cytotoxicity against human SW480 cells after 96 hrs by sulforhodamine B assay.
Assay [7] deals with A-431. Put plainly: Induction of apoptosis in human A431 cells at IC90 concentration after 24 hrs by trypan blue exclusion assay.
The subject of assay [8] is A2780. Put plainly: Induction of apoptosis in human A2780 cells at IC90 concentration after 24 hrs by trypan blue exclusion assay.

Calls of active or inactive are those of the source. The calls are words filed in the database; no cut-off is given here.

Take `COC(=O)[C@@]1(C)CC[C@]2(C)CC[C@]3(C)C(=CC(=O)[C@@H]4[C@@]5(C)CC[C@H](OC(=O)CNCCCCCCN)C(C)(C)[C@@H]5CC[C@]43C)[C@@H]2C1`: the outcome with A-431 [1], with A2780 [2], in the assay with A-431 [7] and in the assay on A2780 [8] was Active. The IC50 amounted to 1.09 µmol in assay [3]; 1.68 µmol with 8505C; 1.12 µmol in assay [4]; 1.36 µmol in the assay on A2780 [5]; 1.59 µmol in the assay with A549; 0.91 µmol in the assay with DLD-1. Further, the IC50 turned out to be 1.78 µmol in the assay on FaDu; 1.17 µmol in the assay on HCT-116; 0.62 µmol in the assay on HCT-8; 0.59 µmol with HT-29; 1.59 µmol in [6]; 1.17 µmol with MCF7. Further, the IC50 was 1.61 µmol in the assay on SW-1736 and 2.25 µmol with SW480.
